Source: patent publication US11427581B2, “JAK inhibitor and use thereof” (ZHUHAI UNITED LABORATORIES CO., LTD., priority 2018, dated 2022)

tested on: not listed separately; assay: Pharmacokinetic (PK) assay in rat; format: in vivo; conditions: blood, po; male SD rat; gavage vs tail vein; read-out: Bioavailability
Method: The clear solution obtained by dissolving the test compound was injected into male mice (C57BL/6) or rats (SD) by tail vein and gavage respectively (overnight fasting, 7-8 weeks old). […] The drug concentration on blood was determined by LC-MS/MS, the related pharmacokinetic parameters were calculated by the linear logarithm trapezoid method of non atrioventricular model by WinNonlin™ Version 6.3.

| Compound | Bioavailability [%] |
| --- | --- |
| O=C(Nc1nc2cccc(C3CCC(NC(=O)C4(F)CC4)CC3)n2n1)C1CC1 (centres unmarked) [Compound 4-3] | 89.8 |

same assay, conditions: blood, po; male SD rat; tail vein and gavage groups, route of the parameter and dose not given; read-out: AUC0-inf

| Compound | AUC0-inf [µM·h] |
| --- | --- |
| O=C(Nc1nc2cccc(C3CCC(NC(=O)C4(F)CC4)CC3)n2n1)C1CC1 (centres unmarked) [Compound 4-3] | 85.8 |

same assay, conditions: blood, po; male SD rat; tail vein and gavage groups, route of the parameter and dose not given; read-out: Cmax (peak concentration)

| Compound | Cmax [µM] |
| --- | --- |
| O=C(Nc1nc2cccc(C3CCC(NC(=O)C4(F)CC4)CC3)n2n1)C1CC1 (centres unmarked) [Compound 4-3] | 24.8 |

same assay, conditions: blood, po; male SD rat; tail vein and gavage groups, route of the parameter and dose not given; read-out: T1/2 (half-life) (converted)

| Compound | half-life [h] |
| --- | --- |
| O=C(Nc1nc2cccc(C3CCC(NC(=O)C4(F)CC4)CC3)n2n1)C1CC1 (centres unmarked) [Compound 4-3] | 2.86 |

same assay, conditions: male SD rat; gavage vs tail vein

| Compound | Bioavailability [%] |
| --- | --- |
| O=C(Nc1nc2cccc(C3=CCC(NC(=O)C4CC4(F)F)CC3)n2n1)C1CC1 (centres unmarked) [Compound 1-7] | 75.2 |
| O=C(Nc1nc2cccc(C3=CC[C@@H](NC(=O)[C@@H]4CC4(F)F)CC3)n2n1)C1CC1 [Compound 3-1] | 30.0 |
| O=C(Nc1nc2cccc(C3CCC(NC(=O)C4CC4(F)F)CC3)n2n1)C1CC1 (centres unmarked) [Compound 4-2] | 58.6 |

same assay, conditions: male SD rat; tail vein and gavage groups, route of the parameter and dose not given

| Compound | AUC0-inf [µM·h] | T1/2 (half-life) [h] |
| --- | --- | --- |
| O=C(Nc1nc2cccc(C3=CCC(NC(=O)C4CC4(F)F)CC3)n2n1)C1CC1 (centres unmarked) [Compound 1-7] | 18.033 | 2.07 |
| O=C(Nc1nc2cccc(C3=CC[C@@H](NC(=O)[C@@H]4CC4(F)F)CC3)n2n1)C1CC1 [Compound 3-1] | 19.967 | 3.11 |
| O=C(Nc1nc2cccc(C3CCC(NC(=O)C4CC4(F)F)CC3)n2n1)C1CC1 (centres unmarked) [Compound 4-2] | 11.021 | 2.22 |

same assay, conditions: male SD rat; tail vein and gavage groups, route of the parameter and dose not given; read-out: Cmax (peak concentration)

| Compound | Cmax [µM] |
| --- | --- |
| O=C(Nc1nc2cccc(C3=CCC(NC(=O)C4CC4(F)F)CC3)n2n1)C1CC1 (centres unmarked) [Compound 1-7] | 23.9 |
| O=C(Nc1nc2cccc(C3=CC[C@@H](NC(=O)[C@@H]4CC4(F)F)CC3)n2n1)C1CC1 [Compound 3-1] | 3.8 |
| O=C(Nc1nc2cccc(C3CCC(NC(=O)C4CC4(F)F)CC3)n2n1)C1CC1 (centres unmarked) [Compound 4-2] | 13.4 |

biological target: JAK3 (h) (Homo sapiens (Human), UniProt P52333); assay: In vitro activity assay of JAK3 kinase (radiometric 33P-ATP, Eurofins); format: biochemical; conditions: recombinant human JAK3
Sequence (P52333 whole entry): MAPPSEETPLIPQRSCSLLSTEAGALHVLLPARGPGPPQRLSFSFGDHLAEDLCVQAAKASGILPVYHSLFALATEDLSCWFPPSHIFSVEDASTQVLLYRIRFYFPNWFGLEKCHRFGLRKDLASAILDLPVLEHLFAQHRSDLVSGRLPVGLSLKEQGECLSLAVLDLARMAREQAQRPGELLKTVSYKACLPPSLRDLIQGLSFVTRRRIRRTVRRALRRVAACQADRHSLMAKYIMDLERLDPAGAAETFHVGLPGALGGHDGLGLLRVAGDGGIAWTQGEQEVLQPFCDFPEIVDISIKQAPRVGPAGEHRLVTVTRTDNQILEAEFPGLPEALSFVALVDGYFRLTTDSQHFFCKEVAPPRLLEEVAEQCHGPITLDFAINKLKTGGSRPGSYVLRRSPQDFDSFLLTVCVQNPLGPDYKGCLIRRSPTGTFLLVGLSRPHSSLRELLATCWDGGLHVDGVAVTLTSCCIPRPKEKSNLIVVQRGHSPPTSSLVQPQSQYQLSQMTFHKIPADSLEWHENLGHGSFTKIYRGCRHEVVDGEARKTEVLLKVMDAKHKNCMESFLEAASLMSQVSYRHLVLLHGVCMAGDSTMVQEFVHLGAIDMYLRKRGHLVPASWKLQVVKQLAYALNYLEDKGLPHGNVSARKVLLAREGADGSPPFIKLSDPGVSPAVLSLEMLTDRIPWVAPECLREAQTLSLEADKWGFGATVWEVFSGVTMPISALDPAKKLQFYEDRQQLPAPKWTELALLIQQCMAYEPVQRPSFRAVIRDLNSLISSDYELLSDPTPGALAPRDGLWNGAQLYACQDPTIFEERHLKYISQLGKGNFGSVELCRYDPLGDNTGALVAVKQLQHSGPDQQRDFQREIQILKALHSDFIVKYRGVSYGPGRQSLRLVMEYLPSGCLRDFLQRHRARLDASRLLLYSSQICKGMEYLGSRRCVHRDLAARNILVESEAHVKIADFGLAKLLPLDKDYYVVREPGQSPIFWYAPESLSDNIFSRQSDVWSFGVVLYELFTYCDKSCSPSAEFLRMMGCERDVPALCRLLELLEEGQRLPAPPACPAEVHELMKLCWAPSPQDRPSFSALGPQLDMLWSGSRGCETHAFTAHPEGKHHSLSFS
Method: (§1) Recombinant human-derived JAK1, JAK2, JAK3, Tyk2 protease, main instruments and reagents were provided by Eurofins in the UK
(§2) JAK2, JAK3 and TYK2 dilution: 20 mM MOPS, 1 mM EDTA, 0.01% Brij-35.5% glycerol, 0.1% β-mercaptoethanol. 1 mg/mL BSA; JAK1 dilution: 20 mM TRIS, 0.2 mM EDTA, 0.1% β-mercaptoethanol, 0.01% Brij-35.5% glycerol. All compounds were prepared as 100% DMSO solutions, and the concentration of the compound reached 50 times the final measured concentration. The test compound was diluted with a 3-fold concentration gradient, the final concentration was 10 μM to 0.001 μM in total 9 concentrations, and the content of DMSO in the detection reaction was 2%. The working stock solution of the compound was added to the wells as the first component of the reaction, and then the remaining components were added according to the protocol detailed below.
(§3) JAK3 (h) was incubated with 8 mM MOPS pH 7.0, 0.2 mM EDTA, 500 μM […], 10 mM magnesium acetate and [γ-^33P]-ATP (activity and concentration were formulated as needed). Mg/ATP mixture was added to initiate the reaction. After incubating at room temperature for 40 minutes, the reaction mixture was added with 0.5% phosphoric acid to stop the reaction. Then 10 μL the reaction solution was spotted on a P30 filter pad and washed with 0.425% phosphoric acid three times and methanol once over 4 minutes, dried, and counted scintillation.
(§4) The IC50 results were analyzed by XLFIT5 (205 formula) of IDBS Company, see Table 1 for details.

| Compound | IC50 [nM] |
| --- | --- |
| O=C(Nc1nc2cccc(C3CCC(NC(=O)[C@@H]4CC4(F)F)CC3)n2n1)C1CC1 (single isomer, unassigned) [Compound 8-1] | > 10000 |
| O=C(Nc1nc2cccc(C3CCC(NC(=O)[C@H]4CC4(F)F)CC3)n2n1)C1CC1 (single isomer, unassigned) [Compound 8-2] | 957 |
| O=C(Nc1nc2cccc(C3CCC(NC(=O)[C@@H]4CC4(F)F)CC3)n2n1)C1CC1 (single isomer, unassigned) [Compound 8-3] | > 10000 |
| O=C(Nc1nc2cccc(C3CCC(NC(=O)[C@H]4CC4(F)F)CC3)n2n1)C1CC1 (single isomer, unassigned) [Compound 8-4] | > 10000 |
| O=C(Nc1nc2cccc(C3=CCC(NC(=O)C4CC4(F)F)CC3)n2n1)C1CC1 (centres unmarked) [Compound 1-7] | 3110 |
| O=C(Nc1nc2cccc(C3=CC[C@@H](NC(=O)[C@@H]4CC4(F)F)CC3)n2n1)C1CC1 [Compound 3-1] | 5520 |
| O=C(Nc1nc2cccc(C3CCC(NC(=O)C4CC4(F)F)CC3)n2n1)C1CC1 (centres unmarked) [Compound 4-2] | 2050 |
| O=C(Nc1nc2cccc(C3CCC(NC(=O)C4(F)CC4)CC3)n2n1)C1CC1 (centres unmarked) [Compound 4-3] | 4380 |

biological target: JAK1 (h) (Homo sapiens (Human), UniProt P23458); assay: In vitro activity assay of JAK1 kinase (radiometric 33P-ATP, Eurofins); format: biochemical; conditions: recombinant human JAK1
Sequence (P23458 whole entry): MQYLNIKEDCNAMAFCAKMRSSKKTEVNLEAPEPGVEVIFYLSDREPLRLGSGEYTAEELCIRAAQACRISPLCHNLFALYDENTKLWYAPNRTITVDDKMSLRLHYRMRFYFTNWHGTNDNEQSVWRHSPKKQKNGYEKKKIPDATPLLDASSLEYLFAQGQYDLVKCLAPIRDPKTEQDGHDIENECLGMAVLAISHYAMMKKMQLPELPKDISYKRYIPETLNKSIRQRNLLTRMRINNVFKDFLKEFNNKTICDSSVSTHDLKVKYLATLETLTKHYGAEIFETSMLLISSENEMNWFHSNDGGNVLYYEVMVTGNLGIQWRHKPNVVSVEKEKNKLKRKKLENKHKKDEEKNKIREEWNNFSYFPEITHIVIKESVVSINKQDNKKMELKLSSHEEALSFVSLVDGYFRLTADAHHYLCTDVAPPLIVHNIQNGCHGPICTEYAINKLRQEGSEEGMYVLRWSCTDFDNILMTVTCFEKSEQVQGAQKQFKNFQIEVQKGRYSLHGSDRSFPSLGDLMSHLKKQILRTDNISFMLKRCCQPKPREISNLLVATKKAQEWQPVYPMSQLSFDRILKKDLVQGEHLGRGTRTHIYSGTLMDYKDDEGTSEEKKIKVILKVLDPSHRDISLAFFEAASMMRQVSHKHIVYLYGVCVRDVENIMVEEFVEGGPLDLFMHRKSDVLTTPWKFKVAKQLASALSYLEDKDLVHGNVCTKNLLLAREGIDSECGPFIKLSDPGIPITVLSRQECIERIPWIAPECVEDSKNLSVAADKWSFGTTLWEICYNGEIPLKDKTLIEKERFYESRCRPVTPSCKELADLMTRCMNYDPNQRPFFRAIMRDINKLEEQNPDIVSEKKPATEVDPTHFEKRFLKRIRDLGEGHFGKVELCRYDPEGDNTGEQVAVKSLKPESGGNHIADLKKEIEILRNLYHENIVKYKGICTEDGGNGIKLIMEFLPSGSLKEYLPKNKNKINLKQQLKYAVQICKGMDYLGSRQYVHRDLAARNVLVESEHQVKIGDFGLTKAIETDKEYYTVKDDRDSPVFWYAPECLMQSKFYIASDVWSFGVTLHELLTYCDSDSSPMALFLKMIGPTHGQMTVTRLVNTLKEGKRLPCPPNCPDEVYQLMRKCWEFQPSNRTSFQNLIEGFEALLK

| Compound | IC50 [nM] |
| --- | --- |
| O=C(Nc1nc2cccc(C3CCC(NC(=O)[C@@H]4CC4(F)F)CC3)n2n1)C1CC1 (single isomer, unassigned) [Compound 8-1] | 111 |
| O=C(Nc1nc2cccc(C3CCC(NC(=O)[C@H]4CC4(F)F)CC3)n2n1)C1CC1 (single isomer, unassigned) [Compound 8-2] | 2 |
| O=C(Nc1nc2cccc(C3CCC(NC(=O)[C@@H]4CC4(F)F)CC3)n2n1)C1CC1 (single isomer, unassigned) [Compound 8-3] | 494 |
| O=C(Nc1nc2cccc(C3CCC(NC(=O)[C@H]4CC4(F)F)CC3)n2n1)C1CC1 (single isomer, unassigned) [Compound 8-4] | 442 |
| O=C(Nc1nc2cccc(C3CCC(NC(=O)C4(F)CC4)CC3)n2n1)C1CC1 (centres unmarked) [Compound 4-3] | 31 |

biological target: TYK2 (h) (Homo sapiens (Human), UniProt P29597); assay: In vitro activity assay of TYK2 kinase (radiometric 33P-ATP, Eurofins); format: biochemical; conditions: recombinant human TYK2
Sequence (P29597 whole entry): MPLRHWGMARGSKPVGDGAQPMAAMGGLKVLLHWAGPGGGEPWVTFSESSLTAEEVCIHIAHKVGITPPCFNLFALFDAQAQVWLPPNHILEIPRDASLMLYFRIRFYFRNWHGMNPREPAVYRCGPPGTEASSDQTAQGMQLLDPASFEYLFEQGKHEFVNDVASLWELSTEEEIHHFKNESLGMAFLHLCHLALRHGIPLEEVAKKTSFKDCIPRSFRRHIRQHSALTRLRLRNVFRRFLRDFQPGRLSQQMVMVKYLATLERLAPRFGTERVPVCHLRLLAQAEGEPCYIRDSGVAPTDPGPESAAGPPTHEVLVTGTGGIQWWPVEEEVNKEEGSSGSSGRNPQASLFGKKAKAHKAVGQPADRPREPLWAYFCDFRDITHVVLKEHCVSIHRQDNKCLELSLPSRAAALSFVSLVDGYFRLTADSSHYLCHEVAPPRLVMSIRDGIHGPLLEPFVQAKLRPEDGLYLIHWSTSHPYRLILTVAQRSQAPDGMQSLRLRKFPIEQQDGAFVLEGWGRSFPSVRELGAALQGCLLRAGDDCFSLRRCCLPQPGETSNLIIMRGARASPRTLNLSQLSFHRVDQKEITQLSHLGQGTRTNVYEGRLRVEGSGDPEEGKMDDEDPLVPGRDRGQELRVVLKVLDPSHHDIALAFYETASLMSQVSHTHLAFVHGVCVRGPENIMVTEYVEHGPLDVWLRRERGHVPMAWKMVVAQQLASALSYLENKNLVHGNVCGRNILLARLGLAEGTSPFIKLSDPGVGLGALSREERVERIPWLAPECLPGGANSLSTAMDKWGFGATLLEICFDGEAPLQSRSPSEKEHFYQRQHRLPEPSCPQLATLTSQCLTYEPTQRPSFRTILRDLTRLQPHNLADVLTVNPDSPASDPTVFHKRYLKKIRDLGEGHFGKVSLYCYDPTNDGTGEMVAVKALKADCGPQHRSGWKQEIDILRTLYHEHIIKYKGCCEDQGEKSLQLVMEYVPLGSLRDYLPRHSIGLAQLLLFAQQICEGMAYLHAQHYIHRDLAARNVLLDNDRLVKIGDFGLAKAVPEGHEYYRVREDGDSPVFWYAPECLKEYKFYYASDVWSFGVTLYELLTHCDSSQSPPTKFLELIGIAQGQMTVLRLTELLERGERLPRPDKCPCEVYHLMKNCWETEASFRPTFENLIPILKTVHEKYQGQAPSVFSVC
Method: as §1, §2
as §3, with “TYK2” for “JAK3”, “250” for “500”, “μL” for “μL the”, “reaction” for “reaction solution”
as §4

| Compound | IC50 [nM] |
| --- | --- |
| O=C(Nc1nc2cccc(C3CCC(NC(=O)[C@@H]4CC4(F)F)CC3)n2n1)C1CC1 (single isomer, unassigned) [Compound 8-1] | 633 |
| O=C(Nc1nc2cccc(C3CCC(NC(=O)[C@H]4CC4(F)F)CC3)n2n1)C1CC1 (single isomer, unassigned) [Compound 8-2] | 24 |
| O=C(Nc1nc2cccc(C3CCC(NC(=O)[C@@H]4CC4(F)F)CC3)n2n1)C1CC1 (single isomer, unassigned) [Compound 8-3] | 3440 |
| O=C(Nc1nc2cccc(C3CCC(NC(=O)[C@H]4CC4(F)F)CC3)n2n1)C1CC1 (single isomer, unassigned) [Compound 8-4] | 2440 |
| O=C(Nc1nc2cccc(C3=CCC(NC(=O)C4CC4(F)F)CC3)n2n1)C1CC1 (centres unmarked) [Compound 1-7] | 73 |
| O=C(Nc1nc2cccc(C3=CC[C@@H](NC(=O)[C@@H]4CC4(F)F)CC3)n2n1)C1CC1 [Compound 3-1] | 78 |
| O=C(Nc1nc2cccc(C3CCC(NC(=O)C4CC4(F)F)CC3)n2n1)C1CC1 (centres unmarked) [Compound 4-2] | 10 |
| O=C(Nc1nc2cccc(C3CCC(NC(=O)C4(F)CC4)CC3)n2n1)C1CC1 (centres unmarked) [Compound 4-3] | 127 |

tested on: adjuvant-induced arthritis rat model; assay: In vivo drug efficacy study in an adjuvant-induced arthritis model (AIA); conditions: 5 mg/kg p.o. bid 14 d

| Compound | inhibition rate relative to the vehicle control group (foot volume curve AUC) [%] |
| --- | --- |
| O=C(Nc1nc2cccc(C3CCC(NC(=O)[C@H]4CC4(F)F)CC3)n2n1)C1CC1 (single isomer, unassigned) [Compound 8-2] | 38.0 |

same assay, conditions: 5 mg/kg p.o. bid 14 d; end of the experiment (27th day); vehicle 2.8 mL

| Compound | average foot volume of arthritis rat [mL] |
| --- | --- |
| O=C(Nc1nc2cccc(C3CCC(NC(=O)[C@H]4CC4(F)F)CC3)n2n1)C1CC1 (single isomer, unassigned) [Compound 8-2] | 1.4 |

same assay, conditions: 15 mg/kg p.o. bid 14 d

| Compound | inhibition rate relative to the vehicle control group (foot volume curve AUC) [%] |
| --- | --- |
| O=C(Nc1nc2cccc(C3CCC(NC(=O)[C@H]4CC4(F)F)CC3)n2n1)C1CC1 (single isomer, unassigned) [Compound 8-2] | 44.5 |

same assay, conditions: 15 mg/kg p.o. bid 14 d; end of the experiment (27th day); vehicle 2.8 mL

| Compound | average foot volume of arthritis rat [mL] |
| --- | --- |
| O=C(Nc1nc2cccc(C3CCC(NC(=O)[C@H]4CC4(F)F)CC3)n2n1)C1CC1 (single isomer, unassigned) [Compound 8-2] | 1.1 |
| O=C(Nc1nc2cccc(C3CCC(NC(=O)C4(F)CC4)CC3)n2n1)C1CC1 (centres unmarked) [Compound 4-3] | 1.5 |

same assay, conditions: 5 mpk p.o. bid 14 d; end of the experiment (27th day); vehicle peak about 8.5

| Compound | clinical score of arthritis rats |
| --- | --- |
| O=C(Nc1nc2cccc(C3CCC(NC(=O)[C@H]4CC4(F)F)CC3)n2n1)C1CC1 (single isomer, unassigned) [Compound 8-2] | 2.7 |

same assay, conditions: 15 mpk p.o. bid 14 d; end of the experiment (27th day); vehicle peak about 8.5

| Compound | clinical score of arthritis rats |
| --- | --- |
| O=C(Nc1nc2cccc(C3CCC(NC(=O)[C@H]4CC4(F)F)CC3)n2n1)C1CC1 (single isomer, unassigned) [Compound 8-2] | 1.0 |
| O=C(Nc1nc2cccc(C3CCC(NC(=O)C4(F)CC4)CC3)n2n1)C1CC1 (centres unmarked) [Compound 4-3] | 2.6 |

same assay, conditions: Rattus norvegicus, po, 336 h; 15 mg/kg p.o. bid 14 d; read-out: inhibition rate relative to the vehicle control group (foot volume curve AUC)

| Compound | inhibition at 15 mg/kg [%] |
| --- | --- |
| O=C(Nc1nc2cccc(C3CCC(NC(=O)C4(F)CC4)CC3)n2n1)C1CC1 (centres unmarked) [Compound 4-3] | 32.3 |

same assay, conditions: dose groups 5 and 15 mg/kg p.o. bid; weight decreased from the 15th to the 17th day

| Compound | body weight of arthritis rats |
| --- | --- |
| O=C(Nc1nc2cccc(C3CCC(NC(=O)[C@H]4CC4(F)F)CC3)n2n1)C1CC1 (single isomer, unassigned) [Compound 8-2] | began to recover slowly on the 19th day |

biological target: JAK2 (h) (Homo sapiens (Human), UniProt O60674); assay: In vitro activity assay of JAK2 kinase (radiometric 33P-ATP, Eurofins); format: biochemical; conditions: recombinant human JAK2
Sequence (O60674 whole entry): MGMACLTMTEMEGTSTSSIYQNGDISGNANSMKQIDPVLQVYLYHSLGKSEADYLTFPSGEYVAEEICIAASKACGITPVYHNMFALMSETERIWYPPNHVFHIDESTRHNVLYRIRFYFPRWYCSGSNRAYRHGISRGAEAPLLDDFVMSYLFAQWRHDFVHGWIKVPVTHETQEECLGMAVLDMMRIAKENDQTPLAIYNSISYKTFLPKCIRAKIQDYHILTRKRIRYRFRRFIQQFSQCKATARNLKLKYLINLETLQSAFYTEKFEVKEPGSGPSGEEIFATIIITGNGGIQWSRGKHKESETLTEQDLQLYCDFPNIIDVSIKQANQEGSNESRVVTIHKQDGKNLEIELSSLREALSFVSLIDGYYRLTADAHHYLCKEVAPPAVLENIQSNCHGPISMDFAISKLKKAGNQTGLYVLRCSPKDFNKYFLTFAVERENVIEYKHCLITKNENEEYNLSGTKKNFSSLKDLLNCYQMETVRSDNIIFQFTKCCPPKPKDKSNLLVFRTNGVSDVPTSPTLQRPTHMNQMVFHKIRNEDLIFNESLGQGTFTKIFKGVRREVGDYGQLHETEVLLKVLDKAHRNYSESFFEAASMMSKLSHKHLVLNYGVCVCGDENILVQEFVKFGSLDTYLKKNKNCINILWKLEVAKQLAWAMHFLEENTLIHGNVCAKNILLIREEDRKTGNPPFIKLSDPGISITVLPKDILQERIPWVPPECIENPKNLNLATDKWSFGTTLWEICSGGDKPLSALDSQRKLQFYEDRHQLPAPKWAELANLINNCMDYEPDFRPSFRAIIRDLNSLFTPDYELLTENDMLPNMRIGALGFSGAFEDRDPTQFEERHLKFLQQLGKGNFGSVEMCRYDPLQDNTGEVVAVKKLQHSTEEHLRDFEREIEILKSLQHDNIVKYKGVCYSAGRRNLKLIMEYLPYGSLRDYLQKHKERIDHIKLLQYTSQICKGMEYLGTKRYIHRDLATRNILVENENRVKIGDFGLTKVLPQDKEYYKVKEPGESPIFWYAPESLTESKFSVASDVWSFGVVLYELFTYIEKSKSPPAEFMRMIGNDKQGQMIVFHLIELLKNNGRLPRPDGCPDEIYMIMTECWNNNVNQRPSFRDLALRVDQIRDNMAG

| Compound | IC50 [nM] |
| --- | --- |
| O=C(Nc1nc2cccc(C3CCC(NC(=O)[C@@H]4CC4(F)F)CC3)n2n1)C1CC1 (single isomer, unassigned) [Compound 8-1] | 861 |
| O=C(Nc1nc2cccc(C3CCC(NC(=O)[C@@H]4CC4(F)F)CC3)n2n1)C1CC1 (single isomer, unassigned) [Compound 8-3] | 5770 |
| O=C(Nc1nc2cccc(C3CCC(NC(=O)[C@H]4CC4(F)F)CC3)n2n1)C1CC1 (single isomer, unassigned) [Compound 8-4] | 3750 |
| O=C(Nc1nc2cccc(C3=CCC(NC(=O)C4CC4(F)F)CC3)n2n1)C1CC1 (centres unmarked) [Compound 1-7] | 239 |
| O=C(Nc1nc2cccc(C3=CC[C@@H](NC(=O)[C@@H]4CC4(F)F)CC3)n2n1)C1CC1 [Compound 3-1] | 141 |
| O=C(Nc1nc2cccc(C3CCC(NC(=O)C4(F)CC4)CC3)n2n1)C1CC1 (centres unmarked) [Compound 4-3] | 360 |
